Measured values: PMC10339703 (Clinical and Translational Science, 2023)

Test system: healthy subjects
Assay: Safety and tolerability
Format: in vivo, human
[1] = MAD 25 mg tablet b.i.d. 14 days
[2] = MAD 50 mg tablet b.i.d. 14 days
[3] = MAD 100 mg tablet b.i.d. 14 days
[4] = MAD 200 mg tablet b.i.d. 14 days

O[C@H]1CCCN[C@@H]1CCCn1cnc2c(Cl)c(Cl)ccc21 [Bersiporocin]
5 (83.3): Nausea (ADR), subjects n (%) [4] | Subjects with ADRs, n (%) [4]
8: Abdominal pain (ADR), number of events [3]
35: ADRs, number of events [2]
5: Abdominal pain (ADR), number of events [1] | Headache (ADR), number of events [2] | Vomiting (ADR), number of events [2] | Abdominal distension (ADR), number of events [4]
12: Nausea (ADR), number of events [4]
88%: subjects with ADRs, percentage (MAD study, bersiporocin group)
1: Abdominal discomfort (ADR), number of events [1] | Bowel movement irregularity (ADR), number of events [1] | Cold sweat (ADR), number of events [1] | Feeling hot (ADR), number of events [1] | Malaise (ADR), number of events [1] | Abdominal distension (ADR), number of events [2] | Abdominal pain (ADR), number of events [2] | Alanine aminotransferase increased (ADR), number of events [2] | Altered visual depth perception (ADR), number of events [2] | Constipation (ADR), number of events [2] | Dizziness (ADR), number of events [2] | Dry mouth (ADR), number of events [2] | Euphoric mood (ADR), number of events [2] | Feces discolored (ADR), number of events [2] | Gastroesophageal reflux disease (ADR), number of events [2] | Hypoesthesia (ADR), number of events [2] | Oropharyngeal pain (ADR), number of events [2] | Pollakiuria (ADR), number of events [2] | Esophageal pain (ADR), number of events [3] | Impaired healing (ADR), number of events [3] | Papule (ADR), number of events [3] | Presyncope (ADR), number of events [3] | Skin irritation (ADR), number of events [3] | Acne (ADR), number of events [4] | Balance disorder (ADR), number of events [4] | Eructation (ADR), number of events [4] | Flatulence (ADR), number of events [4] | Tremor (ADR), number of events [4]
7: Diarrhea (ADR), number of events [4] | Headache (ADR), number of events [4]
32: ADRs, number of events [3]
6 (100): Subjects with ADRs, n (%) [2] | Subjects with ADRs, n (%) [3]
58: ADRs, number of events [4]
3 (50.0): Headache (ADR), subjects n (%) [2] | Vomiting (ADR), subjects n (%) [2] | Abdominal pain (ADR), subjects n (%) [3] | Diarrhea (ADR), subjects n (%) [3] | Nausea (ADR), subjects n (%) [3] | Abdominal distension (ADR), subjects n (%) [4] | Abdominal pain (ADR), subjects n (%) [4] | Headache (ADR), subjects n (%) [4]
0: Abdominal pain upper (ADR), subjects n (%) [1] | Acne (ADR), subjects n (%) [1] | Alanine aminotransferase increased (ADR), subjects n (%) [1] | Altered visual depth perception (ADR), subjects n (%) [1] | Balance disorder (ADR), subjects n (%) [1] | Constipation (ADR), subjects n (%) [1] | Decreased appetite (ADR), subjects n (%) [1] | Dizziness (ADR), subjects n (%) [1] | Dry mouth (ADR), subjects n (%) [1] | Dysgeusia (ADR), subjects n (%) [1] | Eructation (ADR), subjects n (%) [1] | Esophageal pain (ADR), subjects n (%) [1] | Euphoric mood (ADR), subjects n (%) [1] | Feces discolored (ADR), subjects n (%) [1] | Feces soft (ADR), subjects n (%) [1] | Flatulence (ADR), subjects n (%) [1] | Headache (ADR), subjects n (%) [1] | Hypoesthesia (ADR), subjects n (%) [1] | Impaired healing (ADR), subjects n (%) [1] | Myalgia (ADR), subjects n (%) [1] | Neutropenia (ADR), subjects n (%) [1] | Oropharyngeal pain (ADR), subjects n (%) [1] | Papule (ADR), subjects n (%) [1] | Pollakiuria (ADR), subjects n (%) [1] | Presyncope (ADR), subjects n (%) [1] | Proctalgia (ADR), subjects n (%) [1] | Skin irritation (ADR), subjects n (%) [1] | Somnolence (ADR), subjects n (%) [1] | Transaminases increased (ADR), subjects n (%) [1] | Tremor (ADR), subjects n (%) [1] | Vomiting (ADR), subjects n (%) [1] | Abdominal discomfort (ADR), subjects n (%) [2] | Abdominal pain upper (ADR), subjects n (%) [2] | Acne (ADR), subjects n (%) [2] | Balance disorder (ADR), subjects n (%) [2] | Bowel movement irregularity (ADR), subjects n (%) [2] | Cold sweat (ADR), subjects n (%) [2] | Decreased appetite (ADR), subjects n (%) [2] | Eructation (ADR), subjects n (%) [2] | Esophageal pain (ADR), subjects n (%) [2] | Feces soft (ADR), subjects n (%) [2] | Feeling hot (ADR), subjects n (%) [2] | Flatulence (ADR), subjects n (%) [2] | Impaired healing (ADR), subjects n (%) [2] | Malaise (ADR), subjects n (%) [2] | Neutropenia (ADR), subjects n (%) [2] | Papule (ADR), subjects n (%) [2] | Presyncope (ADR), subjects n (%) [2] | Proctalgia (ADR), subjects n (%) [2] | Salivary hypersecretion (ADR), subjects n (%) [2] | Skin irritation (ADR), subjects n (%) [2] | Somnolence (ADR), subjects n (%) [2] | Transaminases increased (ADR), subjects n (%) [2] | Tremor (ADR), subjects n (%) [2] | Abdominal discomfort (ADR), subjects n (%) [3] | Acne (ADR), subjects n (%) [3] | Alanine aminotransferase increased (ADR), subjects n (%) [3] | Altered visual depth perception (ADR), subjects n (%) [3] | Balance disorder (ADR), subjects n (%) [3] | Bowel movement irregularity (ADR), subjects n (%) [3] | Cold sweat (ADR), subjects n (%) [3] | Decreased appetite (ADR), subjects n (%) [3] | Dizziness (ADR), subjects n (%) [3] | Dry mouth (ADR), subjects n (%) [3] | Dysgeusia (ADR), subjects n (%) [3] | Eructation (ADR), subjects n (%) [3] | Euphoric mood (ADR), subjects n (%) [3] | Feces discolored (ADR), subjects n (%) [3] | Feeling hot (ADR), subjects n (%) [3] | Flatulence (ADR), subjects n (%) [3] | Gastroesophageal reflux disease (ADR), subjects n (%) [3] | Headache (ADR), subjects n (%) [3] | Hypoesthesia (ADR), subjects n (%) [3] | Malaise (ADR), subjects n (%) [3] | Myalgia (ADR), subjects n (%) [3] | Neutropenia (ADR), subjects n (%) [3] | Oropharyngeal pain (ADR), subjects n (%) [3] | Pollakiuria (ADR), subjects n (%) [3] | Proctalgia (ADR), subjects n (%) [3] | Salivary hypersecretion (ADR), subjects n (%) [3] | Somnolence (ADR), subjects n (%) [3] | Transaminases increased (ADR), subjects n (%) [3] | Tremor (ADR), subjects n (%) [3] | Abdominal discomfort (ADR), subjects n (%) [4] | Abdominal pain upper (ADR), subjects n (%) [4] | Alanine aminotransferase increased (ADR), subjects n (%) [4] | Altered visual depth perception (ADR), subjects n (%) [4] | Bowel movement irregularity (ADR), subjects n (%) [4] | Cold sweat (ADR), subjects n (%) [4] | Constipation (ADR), subjects n (%) [4] | Decreased appetite (ADR), subjects n (%) [4] | Dry mouth (ADR), subjects n (%) [4] | Dysgeusia (ADR), subjects n (%) [4] | Esophageal pain (ADR), subjects n (%) [4] | Euphoric mood (ADR), subjects n (%) [4] | Feces discolored (ADR), subjects n (%) [4] | Feces soft (ADR), subjects n (%) [4] | Feeling hot (ADR), subjects n (%) [4] | Gastroesophageal reflux disease (ADR), subjects n (%) [4] | Hypoesthesia (ADR), subjects n (%) [4] | Impaired healing (ADR), subjects n (%) [4] | Malaise (ADR), subjects n (%) [4] | Myalgia (ADR), subjects n (%) [4] | Neutropenia (ADR), subjects n (%) [4] | Oropharyngeal pain (ADR), subjects n (%) [4] | Papule (ADR), subjects n (%) [4] | Pollakiuria (ADR), subjects n (%) [4] | Presyncope (ADR), subjects n (%) [4] | Salivary hypersecretion (ADR), subjects n (%) [4] | Skin irritation (ADR), subjects n (%) [4] | Transaminases increased (ADR), subjects n (%) [4]
3: Abdominal distension (ADR), number of events [1] | Diarrhea (ADR), number of events [1] | Salivary hypersecretion (ADR), number of events [1] | Abdominal distension (ADR), number of events [3]
2 (33.3): Abdominal distension (ADR), subjects n (%) [1] | Abdominal pain (ADR), subjects n (%) [1] | Diarrhea (ADR), subjects n (%) [1] | Salivary hypersecretion (ADR), subjects n (%) [1] | Diarrhea (ADR), subjects n (%) [2] | Dysgeusia (ADR), subjects n (%) [2] | Myalgia (ADR), subjects n (%) [2] | Abdominal distension (ADR), subjects n (%) [3] | Abdominal pain upper (ADR), subjects n (%) [3] | Constipation (ADR), subjects n (%) [3] | Feces soft (ADR), subjects n (%) [3] | Dizziness (ADR), subjects n (%) [4] | Vomiting (ADR), subjects n (%) [4]
21: subjects with ADRs, number (MAD study, bersiporocin group)
2: Gastroesophageal reflux disease (ADR), number of events [1] | Diarrhea (ADR), number of events [2] | Dysgeusia (ADR), number of events [2] | Myalgia (ADR), number of events [2] | Abdominal pain upper (ADR), number of events [3] | Constipation (ADR), number of events [3] | Feces soft (ADR), number of events [3] | Vomiting (ADR), number of events [3] | Dizziness (ADR), number of events [4] | Proctalgia (ADR), number of events [4] | Somnolence (ADR), number of events [4] | Vomiting (ADR), number of events [4]
6: Nausea (ADR), number of events [2]
150: ADRs, number of events (MAD study, bersiporocin group)
1 (16.7): Abdominal discomfort (ADR), subjects n (%) [1] | Bowel movement irregularity (ADR), subjects n (%) [1] | Cold sweat (ADR), subjects n (%) [1] | Feeling hot (ADR), subjects n (%) [1] | Gastroesophageal reflux disease (ADR), subjects n (%) [1] | Malaise (ADR), subjects n (%) [1] | Nausea (ADR), subjects n (%) [1] | Abdominal distension (ADR), subjects n (%) [2] | Abdominal pain (ADR), subjects n (%) [2] | Alanine aminotransferase increased (ADR), subjects n (%) [2] | Altered visual depth perception (ADR), subjects n (%) [2] | Constipation (ADR), subjects n (%) [2] | Dizziness (ADR), subjects n (%) [2] | Dry mouth (ADR), subjects n (%) [2] | Euphoric mood (ADR), subjects n (%) [2] | Feces discolored (ADR), subjects n (%) [2] | Gastroesophageal reflux disease (ADR), subjects n (%) [2] | Hypoesthesia (ADR), subjects n (%) [2] | Oropharyngeal pain (ADR), subjects n (%) [2] | Pollakiuria (ADR), subjects n (%) [2] | Esophageal pain (ADR), subjects n (%) [3] | Impaired healing (ADR), subjects n (%) [3] | Papule (ADR), subjects n (%) [3] | Presyncope (ADR), subjects n (%) [3] | Skin irritation (ADR), subjects n (%) [3] | Vomiting (ADR), subjects n (%) [3] | Acne (ADR), subjects n (%) [4] | Balance disorder (ADR), subjects n (%) [4] | Eructation (ADR), subjects n (%) [4] | Flatulence (ADR), subjects n (%) [4] | Proctalgia (ADR), subjects n (%) [4] | Somnolence (ADR), subjects n (%) [4] | Tremor (ADR), subjects n (%) [4]
4 (66.7): Subjects with ADRs, n (%) [1] | Nausea (ADR), subjects n (%) [2] | Diarrhea (ADR), subjects n (%) [4]
25: ADRs, number of events [1]
4: Nausea (ADR), number of events [1] | Diarrhea (ADR), number of events [3] | Nausea (ADR), number of events [3]
14: Abdominal pain (ADR), number of events [4]
